Key:
Canis familiaris [1] = assay: Increasing effect on femoral blood flow in anesthetized dogs compared to the effect of trapidil; format: functional, Canis lupus familiaris, Artery
Canis familiaris [2] = assay: Increasing effect on vertebral blood flow in anesthetized dogs compared to the effect of trapidil; format: functional, Canis lupus familiaris
Canis familiaris [3] = assay: Compound was tested for its hemodynamic effect for percentage change in vertebral blood flow in anesthetized dogs; format: functional, Canis lupus familiaris
Canis familiaris [4] = assay: Compound was tested for its hemodynamic effect for percentage change in coronary blood flow in anesthetized Dogs; format: functional, Canis lupus familiaris, Artery
Canis familiaris [5] = assay: Compound was tested for its hemodynamic effect for percentage change in mean blood pressure in anesthetized Dogs; format: functional, Canis lupus familiaris
Canis familiaris [6] = assay: Compound was tested for its hemodynamic effect for percentage change in heart rate in anesthetized Dogs; format: functional, Canis lupus familiaris

SMILES	Femoral blood flow (Canis familiaris [1])	Vertebral blood flow (Canis familiaris [2])	also measured
O=S(=O)(NCCNCc1ccccc1Cl)c1cccc2cnccc12	2.6	1.5	
CN(CCNS(=O)(=O)c1cccc2cnccc12)C1CCCCC1	0.83	1.7	
CCCCCCN(CCC)CCNS(=O)(=O)c1cccc2cnccc12	1.9	1.7	
CCNCCNS(=O)(=O)c1cccc2cnccc12	2.7	4.2	
CN(CCN)S(=O)(=O)c1cccc2cnccc12		1.6	
NCCN(Cc1ccccc1)S(=O)(=O)c1cccc2cnccc12		1.92	
O=S(=O)(NCCNCCc1ccccc1)c1cccc2cnccc12	0.32	0.31	
CCCCN(CCN)S(=O)(=O)c1cccc2cnccc12		0.27	
CCCCCCCCN(CCN)S(=O)(=O)c1cccc2cnccc12		0.92	
CCCCCCN(CCCCCC)CCNS(=O)(=O)c1cccc2cnccc12	1.2	0.48	
CCCCCCNCCNS(=O)(=O)c1cccc2cnccc12	0.23	0.17	Change (Canis familiaris [3]): 93.7%; Change (Canis familiaris [4]): 45.7%; Change (Canis familiaris [5]): -16.8%; Change (Canis familiaris [6]): 3.9%
CCCNCCNS(=O)(=O)c1cccc2cnccc12	1.6	2.7	
O=S(=O)(NCCNCc1ccccc1)c1cccc2cnccc12		0.57	
CC(C)N(CCN)S(=O)(=O)c1cccc2cnccc12		3.3	
CN(C)CCNS(=O)(=O)c1cccc2cnccc12		1.4	
CC(C)N(CCNS(=O)(=O)c1cccc2cnccc12)C(C)C		2.7	
COc1ccc([C@@H]2Sc3ccccc3N(CCN(C)C)C(=O)[C@@H]2OC(C)=O)cc1 [DILTIAZEM]	0.21	0.15	Change (Canis familiaris [3]): 180%; Change (Canis familiaris [4]): 91.3%; Change (Canis familiaris [5]): -28.9%; Change (Canis familiaris [6]): -8%
CNCCN(C)S(=O)(=O)c1cccc2cnccc12	1.5	1.3	
O=[N+]([O-])c1ccc(CNCCNS(=O)(=O)c2cccc3cnccc23)cc1	2.5	1.5	

SMILES	Femoral blood flow (Canis familiaris [1])	Vertebral blood flow (Canis familiaris [2])	also measured
CCCCCCCCNCCNS(=O)(=O)c1cccc2cnccc12		0.53	
NCCCCCCNS(=O)(=O)c1cccc2cnccc12	2.4	1.4	
COc1ccc(CNCCNS(=O)(=O)c2cccc3cnccc23)cc1OC	3.7	4.3	
COc1ccc(CNCCNS(=O)(=O)c2cccc3cnccc23)cc1	0.43	0.38	
O=S(=O)(c1cccc2cnccc12)N(CCNCc1ccccc1)Cc1ccccc1		1.8	
CNCCNS(=O)(=O)c1cccc2cnccc12	1.7	3.7	
O=S(=O)(NCCNCc1cccc(Cl)c1)c1cccc2cnccc12	0.83	0.26	
CCCCCNCCNS(=O)(=O)c1cccc2cnccc12	1	2.4	
CCCCNCCNS(=O)(=O)c1cccc2cnccc12	1.3	4.6	
CCCCCCCCCCNCCNS(=O)(=O)c1cccc2cnccc12		0.49	
Cl.NNS(=O)(=O)c1cccc2cnccc12		>100	
NCCNS(=O)(=O)c1cccc2cnccc12	2	1.8	
O=S(=O)(NCCNC1CCCCC1)c1cccc2cnccc12		1.4	
CCCCCCN(CCN)S(=O)(=O)c1cccc2cnccc12		0.12	Change (Canis familiaris [3]): 91.4%; Change (Canis familiaris [4]): 53.6%; Change (Canis familiaris [5]): -11.4%; Change (Canis familiaris [6]): 2.8%
NCCCCNS(=O)(=O)c1cccc2cnccc12	2.7	4.2	
CCNCCN(CC)S(=O)(=O)c1cccc2cnccc12	1.1	0.78	
CCN(CCN)S(=O)(=O)c1cccc2cnccc12		1.3	
NCCCNS(=O)(=O)c1cccc2cnccc12	3.6	5.1	
O=S(=O)(NCCNCc1ccc(Cl)cc1)c1cccc2cnccc12	1	0.25	
